Test results taken from patent US11746116B2, “Antibiotic resistance breakers” (KING'S COLLEGE LONDON, priority 2017, dated 2023).
Values after ≈ are worked out from the molar mass of the structure shown.

How the values were obtained:
[1] = molecular target: Safetyscreen44 off target panel (Homo sapiens, UniProt P29274)
[2] = molecular target: Safetyscreen44 off target panel (Homo sapiens, UniProt P41595)
[3] = molecular target: Safetyscreen44 off target panel (Homo sapiens, UniProt P43681)
[4] = molecular target: Safetyscreen44 off target panel (Homo sapiens, UniProt P34972)
[5] = molecular target: Safetyscreen44 off target panel (Homo sapiens, UniProt P25021)
[6] = molecular target: Safetyscreen44 off target panel (Homo sapiens, UniProt P46098)
[7] = molecular target: Safetyscreen44 off target panel (Homo sapiens, UniProt P06239)
[8] = molecular target: Safetyscreen44 off target panel (Homo sapiens, UniProt P10275)
[9] = molecular target: Safetyscreen44 off target panel (Homo sapiens, UniProt P08172)
[10] = molecular target: Safetyscreen44 off target panel (Homo sapiens, UniProt P37288)
[11] = molecular target: Safetyscreen44 off target panel (Homo sapiens, UniProt P11229)
[12] = molecular target: Safetyscreen44 off target panel (Homo sapiens, UniProt P35354)
[13] = tested on: Safetyscreen44 off target panel
[14] = molecular target: Safetyscreen44 off target panel (Homo sapiens, UniProt P08588)
[15] = molecular target: Safetyscreen44 off target panel (Homo sapiens, UniProt P22303)
[16] = molecular target: Safetyscreen44 off target panel (Homo sapiens, UniProt P28223)
[17] = molecular target: Safetyscreen44 off target panel (Homo sapiens, UniProt P32238)
[18] = molecular target: Safetyscreen44 off target panel (Rattus norvegicus, UniProt P21396)
[19] = molecular target: Safetyscreen44 off target panel (Homo sapiens, UniProt Q01959)
[20] = molecular target: Safetyscreen44 off target panel (Homo sapiens, UniProt P35367)
[21] = molecular target: Safetyscreen44 off target panel (Homo sapiens, UniProt P35372)
[22] = molecular target: Safetyscreen44 off target panel (Homo sapiens, UniProt P04150)
[23] = molecular target: Safetyscreen44 off target panel (Rattus norvegicus, UniProt P34975)
[24] = molecular target: Safetyscreen44 off target panel (Homo sapiens, UniProt P23975)
[25] = molecular target: Safetyscreen44 off target panel (Homo sapiens, UniProt P31645)
[26] = molecular target: Safetyscreen44 off target panel (Homo sapiens, UniProt P41143)
[27] = molecular target: Safetyscreen44 off target panel (Homo sapiens, UniProt P20309)
[28] = molecular target: Safetyscreen44 off target panel (Homo sapiens, UniProt P25101)
[29] = molecular target: Safetyscreen44 off target panel (Homo sapiens, UniProt P23219)
[30] = molecular target: Safetyscreen44 off target panel (Homo sapiens, UniProt P21554)
[31] = molecular target: Safetyscreen44 off target panel (Homo sapiens, UniProt Q14432)
[32] = molecular target: Safetyscreen44 off target panel (Homo sapiens, UniProt P07550)
[33] = mouse, in vivo
[34] = in vivo; conditions: male, CD-1 (ICR), mouse, iv, 5 mg/kg
[35] = tested on: AYE; assay: MIC, microdilution broth method; format: cell-based, Acinetobacter baumannii
[36] = tested on: KP13368; assay: MIC, microdilution broth method; format: cell-based
[37] = tested on: VSE775; assay: MIC, microdilution broth method; format: cell-based, Enterococcus faecalis; set-up: MIC, VSE775: unit not given beside the values
[38] = tested on: EMRSA16; assay: MIC, microdilution broth method; format: cell-based, Staphylococcus aureus; conditions: for MIC, EMRSA16: in µg/mL

Safetyscreen44 off target panel (Homo sapiens, UniProt P35354), sequence (P35354 18-604): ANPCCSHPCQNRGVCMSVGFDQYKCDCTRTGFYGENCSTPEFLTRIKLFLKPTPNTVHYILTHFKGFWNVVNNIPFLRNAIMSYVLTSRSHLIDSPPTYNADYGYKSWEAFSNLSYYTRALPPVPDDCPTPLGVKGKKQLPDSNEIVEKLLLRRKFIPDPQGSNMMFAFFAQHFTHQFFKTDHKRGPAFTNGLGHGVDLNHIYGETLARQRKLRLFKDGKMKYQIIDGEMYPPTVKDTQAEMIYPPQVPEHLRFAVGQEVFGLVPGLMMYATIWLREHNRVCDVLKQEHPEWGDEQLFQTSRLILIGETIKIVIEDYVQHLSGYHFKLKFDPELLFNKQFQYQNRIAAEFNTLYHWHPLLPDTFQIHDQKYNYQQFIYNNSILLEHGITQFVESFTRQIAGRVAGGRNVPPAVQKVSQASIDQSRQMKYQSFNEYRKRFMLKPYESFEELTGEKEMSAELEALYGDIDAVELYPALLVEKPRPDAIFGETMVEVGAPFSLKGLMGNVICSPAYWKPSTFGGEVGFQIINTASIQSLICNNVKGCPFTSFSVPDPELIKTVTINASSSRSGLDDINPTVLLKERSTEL
Safetyscreen44 off target panel (Homo sapiens, UniProt P32238), sequence (P32238 whole entry): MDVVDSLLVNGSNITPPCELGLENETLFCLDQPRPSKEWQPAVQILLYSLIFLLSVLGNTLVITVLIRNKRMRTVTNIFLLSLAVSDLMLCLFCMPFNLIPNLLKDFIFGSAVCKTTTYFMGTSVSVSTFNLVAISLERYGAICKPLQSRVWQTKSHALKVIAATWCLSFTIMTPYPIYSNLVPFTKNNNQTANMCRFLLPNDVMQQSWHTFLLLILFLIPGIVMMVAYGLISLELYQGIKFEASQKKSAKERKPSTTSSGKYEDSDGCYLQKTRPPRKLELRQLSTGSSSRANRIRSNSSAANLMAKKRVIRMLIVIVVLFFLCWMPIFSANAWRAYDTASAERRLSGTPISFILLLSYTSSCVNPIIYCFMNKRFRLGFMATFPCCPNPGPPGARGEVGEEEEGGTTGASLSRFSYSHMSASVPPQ
Safetyscreen44 off target panel (Homo sapiens, UniProt P22303), sequence (P22303 32-614): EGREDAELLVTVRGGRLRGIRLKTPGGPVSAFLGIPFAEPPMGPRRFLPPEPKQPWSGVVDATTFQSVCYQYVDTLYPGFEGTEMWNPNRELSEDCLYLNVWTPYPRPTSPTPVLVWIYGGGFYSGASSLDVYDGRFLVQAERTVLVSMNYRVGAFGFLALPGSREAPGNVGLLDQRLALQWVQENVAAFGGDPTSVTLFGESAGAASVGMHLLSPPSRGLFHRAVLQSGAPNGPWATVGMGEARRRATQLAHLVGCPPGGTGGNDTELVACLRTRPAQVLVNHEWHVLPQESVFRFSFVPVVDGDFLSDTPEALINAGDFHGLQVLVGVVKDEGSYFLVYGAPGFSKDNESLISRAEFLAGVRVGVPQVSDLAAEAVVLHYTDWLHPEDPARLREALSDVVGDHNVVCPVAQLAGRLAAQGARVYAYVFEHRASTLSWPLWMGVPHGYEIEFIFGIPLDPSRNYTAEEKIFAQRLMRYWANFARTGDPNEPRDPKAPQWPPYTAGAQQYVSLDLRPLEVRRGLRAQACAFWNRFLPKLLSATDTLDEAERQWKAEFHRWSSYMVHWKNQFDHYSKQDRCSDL
Safetyscreen44 off target panel (Homo sapiens, UniProt P06239), sequence (P06239 whole entry): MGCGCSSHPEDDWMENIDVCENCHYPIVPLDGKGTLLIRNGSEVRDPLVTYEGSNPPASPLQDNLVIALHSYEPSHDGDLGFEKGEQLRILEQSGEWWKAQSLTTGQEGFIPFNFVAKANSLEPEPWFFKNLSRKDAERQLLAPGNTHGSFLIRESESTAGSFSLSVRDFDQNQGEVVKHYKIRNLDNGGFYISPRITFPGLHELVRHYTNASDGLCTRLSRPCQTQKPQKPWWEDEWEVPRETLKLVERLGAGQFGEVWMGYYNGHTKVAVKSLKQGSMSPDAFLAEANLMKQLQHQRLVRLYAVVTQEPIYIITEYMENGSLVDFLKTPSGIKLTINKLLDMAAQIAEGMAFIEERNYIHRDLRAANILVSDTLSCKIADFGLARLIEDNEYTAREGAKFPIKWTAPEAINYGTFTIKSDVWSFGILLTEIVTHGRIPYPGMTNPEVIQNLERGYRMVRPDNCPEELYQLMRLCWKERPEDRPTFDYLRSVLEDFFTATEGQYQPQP
Safetyscreen44 off target panel (Homo sapiens, UniProt P31645), sequence (P31645 whole entry): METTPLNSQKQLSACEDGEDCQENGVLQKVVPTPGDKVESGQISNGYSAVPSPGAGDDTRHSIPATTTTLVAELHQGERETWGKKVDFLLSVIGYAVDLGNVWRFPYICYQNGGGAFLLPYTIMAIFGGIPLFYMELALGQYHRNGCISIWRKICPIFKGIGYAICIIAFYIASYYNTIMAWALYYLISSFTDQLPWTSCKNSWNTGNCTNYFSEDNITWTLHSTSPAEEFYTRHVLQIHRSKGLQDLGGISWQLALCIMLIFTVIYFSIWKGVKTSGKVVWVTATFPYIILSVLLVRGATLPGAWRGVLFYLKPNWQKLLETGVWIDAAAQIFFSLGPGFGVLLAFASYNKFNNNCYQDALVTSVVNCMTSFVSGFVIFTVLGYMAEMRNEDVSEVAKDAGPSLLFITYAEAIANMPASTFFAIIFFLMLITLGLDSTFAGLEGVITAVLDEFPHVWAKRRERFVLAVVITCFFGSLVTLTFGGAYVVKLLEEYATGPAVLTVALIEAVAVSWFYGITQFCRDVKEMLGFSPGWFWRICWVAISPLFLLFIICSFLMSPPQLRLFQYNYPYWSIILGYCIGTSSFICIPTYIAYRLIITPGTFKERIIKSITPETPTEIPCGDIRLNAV
Safetyscreen44 off target panel (Homo sapiens, UniProt P25021), sequence (P25021 whole entry): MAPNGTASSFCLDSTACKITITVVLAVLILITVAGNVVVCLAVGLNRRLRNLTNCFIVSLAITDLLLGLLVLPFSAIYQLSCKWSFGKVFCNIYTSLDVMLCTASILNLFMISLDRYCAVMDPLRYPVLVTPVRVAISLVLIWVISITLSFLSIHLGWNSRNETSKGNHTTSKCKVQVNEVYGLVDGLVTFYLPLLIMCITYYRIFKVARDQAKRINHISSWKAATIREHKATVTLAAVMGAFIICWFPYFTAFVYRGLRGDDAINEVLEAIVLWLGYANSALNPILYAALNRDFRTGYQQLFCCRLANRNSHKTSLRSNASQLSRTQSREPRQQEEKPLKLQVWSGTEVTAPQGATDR
Safetyscreen44 off target panel (Homo sapiens, UniProt P34972), sequence (P34972 whole entry): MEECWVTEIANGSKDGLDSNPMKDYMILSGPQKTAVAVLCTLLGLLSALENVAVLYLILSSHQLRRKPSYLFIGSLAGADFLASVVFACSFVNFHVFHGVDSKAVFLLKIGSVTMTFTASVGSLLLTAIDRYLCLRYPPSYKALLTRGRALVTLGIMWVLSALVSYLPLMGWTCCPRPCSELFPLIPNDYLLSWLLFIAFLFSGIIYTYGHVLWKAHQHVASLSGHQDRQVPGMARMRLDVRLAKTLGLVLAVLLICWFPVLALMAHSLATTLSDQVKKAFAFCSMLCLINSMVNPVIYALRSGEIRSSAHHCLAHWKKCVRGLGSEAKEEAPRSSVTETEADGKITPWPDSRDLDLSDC
Safetyscreen44 off target panel (Homo sapiens, UniProt P08588), sequence (P08588 whole entry): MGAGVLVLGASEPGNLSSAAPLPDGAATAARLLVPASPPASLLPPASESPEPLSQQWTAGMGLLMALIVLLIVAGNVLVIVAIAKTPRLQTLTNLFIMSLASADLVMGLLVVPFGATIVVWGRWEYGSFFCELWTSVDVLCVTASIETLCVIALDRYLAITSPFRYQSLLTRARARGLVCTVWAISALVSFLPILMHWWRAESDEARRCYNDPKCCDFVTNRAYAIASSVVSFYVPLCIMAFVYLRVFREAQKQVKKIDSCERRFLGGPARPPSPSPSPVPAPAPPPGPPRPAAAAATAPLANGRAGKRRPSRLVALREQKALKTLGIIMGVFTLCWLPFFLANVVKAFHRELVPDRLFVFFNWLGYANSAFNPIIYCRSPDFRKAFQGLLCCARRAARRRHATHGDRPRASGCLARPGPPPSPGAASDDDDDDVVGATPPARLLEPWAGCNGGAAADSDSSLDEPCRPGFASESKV
Safetyscreen44 off target panel (Homo sapiens, UniProt P41595), sequence (P41595 whole entry): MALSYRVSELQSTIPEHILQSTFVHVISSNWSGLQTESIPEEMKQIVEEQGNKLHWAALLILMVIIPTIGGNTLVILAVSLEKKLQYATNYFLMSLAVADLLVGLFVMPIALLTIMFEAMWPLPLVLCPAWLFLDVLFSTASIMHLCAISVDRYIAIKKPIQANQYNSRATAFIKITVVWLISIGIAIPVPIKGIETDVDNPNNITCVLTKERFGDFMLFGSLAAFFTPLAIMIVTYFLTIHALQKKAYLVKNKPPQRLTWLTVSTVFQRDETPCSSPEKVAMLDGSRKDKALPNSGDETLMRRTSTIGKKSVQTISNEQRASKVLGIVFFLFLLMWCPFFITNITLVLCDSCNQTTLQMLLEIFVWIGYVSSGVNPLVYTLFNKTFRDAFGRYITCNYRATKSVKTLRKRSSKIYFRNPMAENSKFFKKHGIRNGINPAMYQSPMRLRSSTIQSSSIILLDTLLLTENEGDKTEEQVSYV
Safetyscreen44 off target panel (Homo sapiens, UniProt P25101), sequence (P25101 21-427): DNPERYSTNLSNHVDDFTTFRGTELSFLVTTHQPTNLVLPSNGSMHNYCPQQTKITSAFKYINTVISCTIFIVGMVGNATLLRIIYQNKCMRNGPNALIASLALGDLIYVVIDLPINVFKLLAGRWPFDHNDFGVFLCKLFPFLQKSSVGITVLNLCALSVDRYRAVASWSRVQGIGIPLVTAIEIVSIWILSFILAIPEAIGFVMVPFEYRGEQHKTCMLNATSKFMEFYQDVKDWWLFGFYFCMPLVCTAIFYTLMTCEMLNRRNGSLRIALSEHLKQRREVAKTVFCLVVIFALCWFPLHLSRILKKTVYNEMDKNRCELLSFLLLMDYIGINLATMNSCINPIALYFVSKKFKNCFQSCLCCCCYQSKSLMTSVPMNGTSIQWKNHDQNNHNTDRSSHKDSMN

## C[C@H]1COc2c(N3CC[C@@H](Nc4ncccn4)C3)c(F)cc3c(=O)c(C(=O)O)cn1c23 [KSN-82-L22]
[1]
  % inhibition, A2A (h) (agonist radioligand): 53.628%
[2]
  % inhibition, 5-HT2B (h) (agonist radioligand): 5.374%
[3]
  % inhibition, N neuronal alpha 4beta 2 (h) (agonist radioligand): −41.8108%
[4]
  % inhibition, CB2 (h) (agonist radioligand): 0%
[5]
  % inhibition, H2 (h) (antagonist radioligand): −40.1709%
[6]
  % inhibition, 5-HT3 (h) (antagonist radioligand): −4.708%
[7]
  % inhibition, Lck kinase (h): −2.891%
[8]
  % inhibition, AR (h) (agonist radioligand): 4.241%
[9]
  % inhibition, M2 (h) (antagonist radioligand): 1.066%
[10]
  % inhibition, V1a (h) (agonist radioligand): −12.5662%
[11]
  % inhibition, M1 (h) (antagonist radioligand): 3.129%
[12]
  % inhibition, COX2(h): 8.111%
[13]
  % inhibition, BZD (central) (agonist radioligand): −44.8289%
  % inhibition, Ca2+ channel (L, dihydropyridine site) (antagonist radioligand): 6.049%
  % inhibition, D2S (h) (agonist radioligand): −7.807%
  % inhibition, NMDA (antagonist radioligand): 12.6124%
  % inhibition, Na+ channel (site 2) (antagonist radioligand): 23.6539%
  % inhibition, PDE4D2 (h): 14.8003%
  % inhibition, alpha 1A (h) (antagonist radioligand): 11.5312%
[14]
  % inhibition, beta 1 (h) (agonist radioligand): 1.921%
[15]
  % inhibition, acetylcholinesterase (h): 32.9861%
[16]
  % inhibition, 5-HT2A (h) (agonist radioligand): −8.881%
[17]
  % inhibition, CCK1 (CCKA) (h) (agonist radioligand): −2.038%
[18]
  % inhibition, MAO-A (antagonist radioligand): −9.13%
[19]
  % inhibition, dopamine transporter (h) (antagonist radioligand): 10.0257%
[20]
  % inhibition, H1 (h) (antagonist radioligand): 5.564%
[21]
  % inhibition, mu (MOP) (h) (agonist radioligand): 6.535%
[22]
  % inhibition, GR (h) (agonist radioligand): 3.456%
[23]
  % inhibition, kappa (KOP) (agonist radioligand): 27.3513%
[24]
  % inhibition, norepinephrine transporter (h) (antagonist radioligand): −6.471%
[25]
  % inhibition, 5-HT transporter (h) (antagonist radioligand): −16.9663%
[26]
  % inhibition, delta (DOP) (h) (agonist radioligand): 2.159%
[27]
  % inhibition, M3 (h) (antagonist radioligand): 2.273%
[28]
  % inhibition, ETA (h) (agonist radioligand): −5.236%
[29]
  % inhibition, COX1 (h): 30.3185%
[30]
  % inhibition, CB1 (h) (agonist radioligand): 1.857%
[31]
  % inhibition, PDE3A (h): 7.502%
[32]
  % inhibition, beta 2 (h) (antagonist radioligand): 11.3086%
[33]; male, CD-1 (ICR)
  Bioavailability Using AUCinf: 49-3%
  Bioavailability Using AUCo.t: 32.0%
[33]; male, CD-1 (ICR), po, 20 mg/kg
  AUGinf: 13.203 µg·h/mL
[33]; po, 20 mg/kg
  T½: 5-1 h
[34]
  Vd: 1 to 4 L/kg

## Cc1cc(C)nc(N[C@@H]2CCN(c3c(F)cc4c(=O)c(C(=O)O)cn5c4c3OC[C@@H]5C)C2)n1 [KSN-BL7, (S)-10-((R)-3-((4,6-dimethylpyrimidin-2-yl)amino)pyrrolidin-1-yl)-9-fluoro-3-methyl-7-oxo-2,3-dihydro-7H-[1,4]oxazino[2,3,4-ij]quinoline-6-carboxylic acid]
[35]; Acinetobacter baumannii
  MIC: 8 mg/L (≈ 17.6 µM)
[35]; ESKAPE panel, Gram-negative, in µg/mL
  MIC, AYE: 8
[36]; ESKAPE panel, Gram-negative
  MIC, KP13368: 16 mg/L (≈ 35.3 µM)
[36]; Klebsiella pneumoniae
  MIC: 16 mg/L (≈ 35.3 µM)
[37]; ESKAPE panel, Gram-positive
  MIC, VSE775: 0.0625
[37]; Enterococcus faecalis
  MIC: 0.06 mg/L (≈ 0.132 µM)
[38]; EMRSA16 (Table 16, role of the terminal pyrimidine ring)
  MIC, EMRSA16: 0.25-0.5
[38]; ESKAPE panel, Gram-positive
  MIC, EMRSA16: 0.25
[38]; Staphylococcus aureus
  MIC: 0.25 mg/L (≈ 0.551 µM)
